Source: article PMC6364417, “Kinase inhibitor library screening identifies synergistic drug combinations effective in sensitive and resistant melanoma cells” (Journal of Experimental & Clinical Cancer Research : CR, 2019)

Key:
Test in all cases: Kinase inhibitor library screening, PrestoBlue cell viability, 1 or 10 μM, 72 h
[1] = tested on: IGR37-GP cells (Dabrafenib-resistant); settings: IGR37 GP, 72 h
[2] = tested on: 501Mel-GP cells (Dabrafenib-resistant); settings: 501Mel GP, 72 h
[3] = tested on: A375-XP cells (Vemurafenib-resistant); settings: A375 XP, 72 h
[4] = tested on: A375-GP cells (Dabrafenib-resistant); settings: A375 GP, 72 h
501Mel cells (parental) = settings: 501Mel Parental, 72 h
Outline: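 Values are % viability versus untreated wells, measured by PrestoBlue after a 72 h drug exposure. Screens covered the parental line plus sublines rendered resistant to Vemurafenib or Dabrafenib, each analysed in at least duplicate.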

IGR37 cells (parental) = settings: IGR37 Parental, 72 h
[5] = tested on: IGR37-XP cells (Vemurafenib-resistant); settings: IGR37 XP, 72 h
[6] = tested on: 501Mel-XP cells (Vemurafenib-resistant); settings: 501Mel XP, 72 h
A375 cells (parental) = settings: A375 Parental, 72 h

In the case of `O=c1cc(N2CCOCC2)oc2c(-c3ccccc3)cccc12` [LY294002], the Cell viability in kinase inhibitor library screening, IGR37 GP, 10μΜ ([1]; 10μΜ) was 72.8%, the “Cell viability in kinase inhibitor library screening, IGR37 GP, 1μΜ” value ([1]; 1μΜ, in %) was 100.0 and the “Cell viability in kinase inhibitor library screening, 501Mel GP, 1μΜ” value ([2]; 1μΜ, in %) was 104.8. For the same compound, the “Cell viability in kinase inhibitor library screening, 501Mel GP, 10μΜ” value ([2]; 10μΜ, in %) was 77.9, the “Cell viability in kinase inhibitor library screening, A375 XP, 1μΜ” value ([3]; 1μΜ) was 104.6 and the “Cell viability in kinase inhibitor library screening, A375 XP, 10μΜ” value ([3]; 10μΜ) was 90.9. The “Cell viability in kinase inhibitor library screening, A375 GP, 1μΜ” value ([4]; 1μΜ) was 104.5, the “Cell viability in kinase inhibitor library screening, A375 GP, 10μΜ” value ([4]; 10μΜ) was 79.2 and the “Cell viability in kinase inhibitor library screening, 501Mel Parental, 10μΜ” value (501Mel cells (parental); 10μΜ, in %) was 86.8. For the same compound, the “Cell viability in kinase inhibitor library screening, IGR37 Parental, 1μΜ” value (IGR37 cells (parental); 1μΜ, in %) was 106.7, the “Cell viability in kinase inhibitor library screening, IGR37 Parental, 10μΜ” value (IGR37 cells (parental); 10μΜ, in %) was 84.5 and the Cell viability in kinase inhibitor library screening, IGR37 XP, 10μΜ ([5]; 10μΜ) was 46.1%. The “Cell viability in kinase inhibitor library screening, IGR37 XP, 1μΜ” value ([5]; 1μΜ, in %) was 100.0, the “Cell viability in kinase inhibitor library screening, 501Mel XP, 1μΜ” value ([6]; 1μΜ, in %) was 91.4 and the “Cell viability in kinase inhibitor library screening, 501Mel XP, 10μΜ” value ([6]; 10μΜ, in %) was 68.2. The “Cell viability in kinase inhibitor library screening, A375 Parental, 10μΜ” value (A375 cells (parental); 10μΜ) was 80.4 and the “Cell viability in kinase inhibitor library screening, A375 Parental, 1μΜ” value (A375 cells (parental); 1μΜ) was 105.7.
For `Nc1nccc(Oc2ccc(NC(=O)c3c[nH]cc(-c4ccc(F)cc4)c3=O)cc2F)c1Cl` [BMS 794833], the “cell viability (kinase inhibitor library screening)” value ([1]; 1μΜ) was 94.1%, the “cell viability (kinase inhibitor library screening)” value ([1]; 10μΜ) was 90.1% and the “cell viability (kinase inhibitor library screening)” value ([2]; 1μΜ) was 90.0%. For the same compound, the “cell viability (kinase inhibitor library screening)” value ([2]; 10μΜ) was 70.5%, the “cell viability (kinase inhibitor library screening)” value ([3]; 1μΜ) was 104.8% and the “cell viability (kinase inhibitor library screening)” value ([3]; 10μΜ) was 96.9%. The “cell viability (kinase inhibitor library screening)” value ([4]; 10μΜ) was 85.8%, the “cell viability (kinase inhibitor library screening)” value (501Mel cells (parental); 1μΜ) was 95.9% and the “cell viability (kinase inhibitor library screening)” value (501Mel cells (parental); 10μΜ) was 83.2%. The “cell viability (kinase inhibitor library screening)” value (IGR37 cells (parental); 1μΜ) was 106.3%, the “cell viability (kinase inhibitor library screening)” value (IGR37 cells (parental); 10μΜ) was 97.3% and the “cell viability (kinase inhibitor library screening)” value ([5]; 1μΜ) was 103.7%. For the same compound, the “cell viability (kinase inhibitor library screening)” value ([5]; 10μΜ) was 63.5%, the “cell viability (kinase inhibitor library screening)” value ([6]; 1μΜ) was 91.8% and the “cell viability (kinase inhibitor library screening)” value ([6]; 10μΜ) was 52.9%. For the same compound, the “cell viability (kinase inhibitor library screening)” value (A375 cells (parental); 10μΜ) was 63.8%.
In the case of `CC(C)(C)c1cc(C=C(C#N)C#N)cc(Br)c1O` [AG-1024], the cell viability, IGR37 GP, 10μΜ ([1]; 10μΜ) was 76.8%, the “cell viability, IGR37 GP, 1μΜ” value ([1]; 1μΜ, in %) was 96.1 and the “cell viability, 501Mel GP, 1μΜ” value ([2]; 1μΜ, in %) was 109.0. For the same compound, the “cell viability, 501Mel GP, 10μΜ” value ([2]; 10μΜ, in %) was 85.4, the “cell viability, A375 XP, 1μΜ” value ([3]; 1μΜ, in %) was 106.8 and the “cell viability, A375 XP, 10μΜ” value ([3]; 10μΜ, in %) was 89.1. The “cell viability, A375 GP, 1μΜ” value ([4]; 1μΜ, in %) was 98.0, the “cell viability, A375 GP, 10μΜ” value ([4]; 10μΜ, in %) was 86.9 and the “cell viability, 501Mel Parental, 1μΜ” value (501Mel cells (parental); 1μΜ, in %) was 98.8. For the same compound, the “cell viability, 501Mel Parental, 10μΜ” value (501Mel cells (parental); 10μΜ, in %) was 98.3, the “cell viability, IGR37 Parental, 10μΜ” value (IGR37 cells (parental); 10μΜ, in %) was 96.2 and the cell viability, IGR37 XP, 10μΜ ([5]; 10μΜ) was 46%. For the same compound, the “cell viability, IGR37 XP, 1μΜ” value ([5]; 1μΜ, in %) was 95.7, the “cell viability, 501Mel XP, 1μΜ” value ([6]; 1μΜ, in %) was 99.5 and the “cell viability, 501Mel XP, 10μΜ” value ([6]; 10μΜ, in %) was 85.0. The “cell viability, A375 Parental, 1μΜ” value (A375 cells (parental); 1μΜ, in %) was 99.7 and the “cell viability, A375 Parental, 10μΜ” value (A375 cells (parental); 10μΜ, in %) was 86.3.
In the case of `CC(C)(C)c1cnc(CSc2cnc(NC(=O)C3CCNCC3)s2)o1` [SNS-032 (BMS-387032)], the “cell viability (kinase inhibitor library screening)” value ([1]; 1μΜ) was 8.6%, the “cell viability (kinase inhibitor library screening)” value ([1]; 10μΜ) was 2.7% and the “cell viability (kinase inhibitor library screening)” value ([2]; 1μΜ) was 31.8%. The “cell viability (kinase inhibitor library screening)” value ([2]; 10μΜ) was 0.161%, the “cell viability (kinase inhibitor library screening)” value ([3]; 1μΜ) was 14.3% and the “cell viability (kinase inhibitor library screening)” value ([3]; 10μΜ) was 6.4%. The “cell viability (kinase inhibitor library screening)” value ([4]; 1μΜ) was 8.3%, the “cell viability (kinase inhibitor library screening)” value ([4]; 10μΜ) was 3.6% and the “cell viability (kinase inhibitor library screening)” value (501Mel cells (parental); 1μΜ) was 23.5%. For the same compound, the “cell viability (kinase inhibitor library screening)” value (501Mel cells (parental); 10μΜ) was 0.4%, the “cell viability (kinase inhibitor library screening)” value (IGR37 cells (parental); 1μΜ) was 3.3% and the “cell viability (kinase inhibitor library screening)” value (IGR37 cells (parental); 10μΜ) was 0.754%. For the same compound, the “cell viability (kinase inhibitor library screening)” value ([5]; 1μΜ) was 2.8%, the “cell viability (kinase inhibitor library screening)” value ([5]; 10μΜ) was 2.1% and the “cell viability (kinase inhibitor library screening)” value ([6]; 1μΜ) was 30.8%. The “cell viability (kinase inhibitor library screening)” value ([6]; 10μΜ) was -0.0482%, the “cell viability (kinase inhibitor library screening)” value (A375 cells (parental); 10μΜ) was 7.7% and the “cell viability (kinase inhibitor library screening)” value (A375 cells (parental); 1μΜ) was 13.7%.
